Measurements taken from patent US20130165446A1 (priority 2010, published 2013).

Experiments:
[1] = biological target: T1, human recombinant (CHO cell) AT1 receptor (Homo sapiens, UniProt P30556); assay: Angiotensin II inhibition test (radioligand binding to AT1 receptor); conditions: test compound concentration 10^−9 M; radioactive iodine-labeled angiotensin II, 37° C., sixty minutes; read-out: Inhibition rate (%)
T1 construct: expressed in transfected cells; host or cells: CHO cells
T1 sequence (P30556 1-359): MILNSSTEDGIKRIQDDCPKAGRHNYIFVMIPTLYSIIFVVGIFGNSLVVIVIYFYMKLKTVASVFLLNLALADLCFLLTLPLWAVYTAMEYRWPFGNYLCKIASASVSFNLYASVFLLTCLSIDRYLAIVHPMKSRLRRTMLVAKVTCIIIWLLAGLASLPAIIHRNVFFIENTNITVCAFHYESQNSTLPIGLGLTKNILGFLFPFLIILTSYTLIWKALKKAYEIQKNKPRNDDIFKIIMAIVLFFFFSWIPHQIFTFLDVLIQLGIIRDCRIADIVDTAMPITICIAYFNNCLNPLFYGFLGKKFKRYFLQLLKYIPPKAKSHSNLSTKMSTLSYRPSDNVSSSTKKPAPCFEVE
Experimental: A test of inhibition of angiotensin II to human recombinant (CHO cell) AT1 receptor following a method described in the literature (for example, Regul. Pept., vol. 44 (2), page 131 (1993)) was used to measure inhibitory activity to a test compound.
The ligand used was 10^−9 M of a test compound dissolved in 1% DMSO (dimethylsulfoxide). This was reacted with radioactive iodine-labeled angiotensin II at 37° C. for sixty minutes. Taking the inhibition rate of angiotensin II at 10 μM as nonspecific binding, the specific binding rate was calculated by subtracting this nonspecific portion. Table 6 indicates the results (the inhibition rate at test compound concentration: 10^−9 M)

[2] = tested on: ob/ob mice (C57b1/6ob/ob female mice); assay: Glucose tolerance test (in vivo); conditions: for Glucose concentration: fasted ob/ob mice, oral load 2 g/kg glucose, Example 8 oral 10 mg/kg days 1-25 then 20 mg/kg days 26-33, rosiglitazone 3 mg/kg, n=8
Experimental: (§1) A test compound (the compound of Example 8, n=8) was given orally to 5- to 6-week-old ob/ob mice (C57b1/6ob/ob female mice) at a dose of 10 mg/kg for 1-25 days, then a test compound (the compound of Example 8) was given at 20 mg/kg for 26-33 days. An oral load test of 2 g/kg of glucose was carried out while the mice were fasted, and the blood glucose concentration was measured at −30, 0, 30, 60, 90, 120, and 180 minutes. For comparison, 3 mg/kg of rosiglitazone (n=8) were given for 1-25 days, then 3 mg/kg of rosiglitazone were given for 26-33 days, and the blood glucose concentration was measured in the same manner. Table 7 indicates the results.

[3] = biological target: T2, human nuclear receptor PPARα (Homo sapiens, UniProt Q07869); assay: PPAR agonist activity measurement test (cell-free FRET cofactor assay), PPARα; format: biochemical; conditions: result in words
T2 sequence (Q07869 239-466 limits assumed): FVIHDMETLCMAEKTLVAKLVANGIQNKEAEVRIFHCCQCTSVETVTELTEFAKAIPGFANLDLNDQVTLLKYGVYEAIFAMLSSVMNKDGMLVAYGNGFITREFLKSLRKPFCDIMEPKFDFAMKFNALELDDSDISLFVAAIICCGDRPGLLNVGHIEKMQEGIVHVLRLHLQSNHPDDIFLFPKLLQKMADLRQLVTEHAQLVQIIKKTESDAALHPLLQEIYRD
Experimental: (§2) Agonist activity to the human nuclear receptors PPARα, β, and γ was measured using a biochemical fluorescent resonance energy transfer (FRET) assay system, which is a cell-free assay system, following a method described in the literature (for example, J. Biol. Chem., vol. 281 (8), pages 4920-4930 (2006)).
(§3) Specifically, after an N-terminal biotin-labeled peptide having cofactor peptide SRC1 (amino acid sequence 676-700), which includes the nuclear receptor bonding LXXLL motif region, and the fluorescent fusion proteins of the PPAR ligand binding domain were allowed to stand at room temperature for one hour, the energy transfer between the fluorescence donor and the fluorescence acceptor was measured to detect the test compound dose reaction to the cofactor.
(§4) A Perkin-Elmer Envision Multilabel Plate Reader was used for measurement. During measurement, 320 nm was used as the excitation wavelength, and 615 nm and 665 nm were used as the emission wavelengths. The test compound was dissolved in DMSO (dimethylsulfoxide) to a final solution concentration of 1%.

[4] = biological target: T3, human nuclear receptor PPARβ (Homo sapiens, UniProt Q03181); assay: PPAR agonist activity measurement test (cell-free FRET cofactor assay), PPARβ; format: biochemical; conditions: result in words
T3 sequence (Q03181 211-439 limits assumed): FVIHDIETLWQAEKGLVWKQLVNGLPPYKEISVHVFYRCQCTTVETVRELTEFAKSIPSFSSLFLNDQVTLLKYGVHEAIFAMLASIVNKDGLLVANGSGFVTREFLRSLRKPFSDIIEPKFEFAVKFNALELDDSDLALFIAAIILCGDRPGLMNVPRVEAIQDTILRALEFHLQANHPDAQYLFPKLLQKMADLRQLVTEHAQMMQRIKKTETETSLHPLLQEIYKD
Experimental: as §2, §3, §4

[5] = Weight gain test (in vivo); conditions: ob/ob mice; for Weight gain: Example 8 10 mg/kg, rosiglitazone 3 mg/kg, days 1-25
Experimental: as §1
The body weight of mice was measured when 10 mg/kg of the same test compound (the compound of Example 8) were given for 1-25 days, and 3 mg/kg of rosiglitazone were given for 1-25 days. Table 8 indicates the results.

[6] = biological target: T4, human nuclear receptor PPARγ (Homo sapiens, UniProt P37231); assay: PPAR agonist activity measurement test (cell-free FRET cofactor assay), PPARγ; format: biochemical
T4 sequence (P37231 238-503 limits assumed): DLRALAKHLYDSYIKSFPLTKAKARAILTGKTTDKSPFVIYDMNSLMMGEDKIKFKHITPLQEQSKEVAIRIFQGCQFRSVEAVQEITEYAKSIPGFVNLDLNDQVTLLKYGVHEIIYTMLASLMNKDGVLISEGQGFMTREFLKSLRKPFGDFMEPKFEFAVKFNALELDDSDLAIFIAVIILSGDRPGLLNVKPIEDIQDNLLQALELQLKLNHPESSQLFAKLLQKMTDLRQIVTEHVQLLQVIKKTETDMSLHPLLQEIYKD
Experimental: as §2, §3, §4

- inhibition at 0.001 µM [1]: 73%
- activity against PPARα [3]: did not exhibit activity
- activity against PPARβ [4]: did not exhibit activity
- activity against PPARγ ([6]; FRET agonist assay, result in words): exhibited activity only against PPARy
- EC50 ([6]; FRET, cofactor peptide SRC1, twelve concentrations 50 μM to 0 nM, 1% DMSO, read-out: ED50 (the source's name)): 114 nM
Structure (SMILES): CCCc1nc(CSc2ccc(Oc3ccc4nc(COc5ccc(CC6SC(=O)NC6=O)cc5)n(C)c4c3)cc2)c(C(=O)OCC)n1Cc1ccc(-c2ccccc2-c2nnn[nH]2)cc1 (centres unmarked) [Example 8, 4-[4-{2-[4-(2,4-dioxothiazolidin-5-ylmethyl)phenoxymethyl]-1-methyl-1H-benzimidazol-6-yloxy}phenylthiomethyl]-2-propyl-1-[2′-(1H-tetrazol-5-yl)biphenyl-4-ylmethyl]-1H-imidazole-5-carboxylic acid ethyl ester]
- Glucose concentration ([2]; 0 min): 6.4 ± 0.6 mmol/L
- Glucose concentration ([2]; 30 min): 12.5 ± 0.9 mmol/L
- Glucose concentration ([2]; 60 min): 7.3 ± 0.9 mmol/L
- Glucose concentration ([2]; 120 min): 5.5 ± 0.6 mmol/L
- Glucose concentration ([2]; 180 min): 6.1 ± 0.6 mmol/L
- increase in blood glucose concentration compared to the control ([2]; ob/ob mice, oral glucose load 2 g/kg, result in words): significantly inhibited increase in blood glucose concentration compared to the control
- Glucose concentration ([2]; −30 min): 7.6 ± 0.9 mmol/L
- Weight gain ([5]; day 0): 0 g
- Weight gain ([5]; day 4): 0.8 ± 0.0 g
- Weight gain ([5]; day 11): 3.3 ± 0.2 g
- Weight gain ([5]; day 14): 4.2 ± 0.3 g
- Weight gain ([5]; day 18): 5.9 ± 0.3 g
- Weight gain ([5]; day 24): 6.8 ± 0.2 g
- weight gain compared to the control ([5]; 10 mg/kg days 1-25, result in words): nearly comparable weight gain to the control
- weight gain compared to rosiglitazone ([5]; 10 mg/kg days 1-25 vs rosiglitazone 3 mg/kg, result in words): significantly inhibited weight gain compared to rosiglitazone
